T/C data for 4 molecules are collected here from PubChem BioAssay AID192 (DTP/NCI, 2004).

Values joined by “and” are separate entries in the source; they are usually repeats but may differ in a detail not shown here. Identical values can stand only once. Toxic doses and inconclusive results are not listed. Numbered stars: 1 amine (or outer) side, 2 acyl side, 3 side chain; on linkers, the order of the positions; unused ones are H or OH. Bridge positions count the residues as written; N and C are the ends. Square brackets hold non-standard residues; d marks the D form. Peptide text beside a SMILES is read from it. I, II: the chains in the order shown. Actinocin(9to1) = Cc1c2oc3c(C)ccc(C(=O)[*:1])c3nc-2c(C(=O)[*:2])c(N)c1=O; X2 = O=C(C1CC(Cl)CN1[*:1])[*:2]; NMeV = CN[CH](C(=O)O)C(C)C; Sar = CNCC(=O)O

The experiment relates to BDF1 mice, B16 melanoma ip, median survival T/C. In words: NCI In Vivo Anticancer Drug Screen. Data for tumor model B16 Melanoma (intraperitoneal) in B6D2F1 (BDF1) mice. As to conditions: endpoint: median survival time, higher = longer survival. A digest of the protocol: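 Antitumor activity is assessed in mice bearing a transplanted tumor, with survival or tumor size compared against vehicle-dosed controls and expressed as T/C.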

For the molecule `CCN(CCCCOC(=O)c1ccc(OC)c(OC)c1)C(C)Cc1ccc(OC)cc1` (stereo unspecified), the T/C is 93 % of control (dose: 1.32 mg/kg/injection, schedule: Q01DX009 (ip), vehicle: saline); 98 % of control (dose: 2.65 mg/kg/injection, schedule: Q01DX009 (ip), vehicle: saline); 116 % of control (dose: 4.68 mg/kg/injection, schedule: Q04DX003 (ip), vehicle: saline); 105 % of control and 107 % of control (dose: 5.31 mg/kg/injection, schedule: Q01DX009 (ip), vehicle: saline); 111 % of control (dose: 9.37 mg/kg/injection, schedule: Q04DX003 (ip), vehicle: saline); 88 % of control (dose: 10.6 mg/kg/injection, schedule: Q01DX009 (ip), vehicle: saline). Further, the T/C (dose: 10.62 mg/kg/injection, schedule: Q01DX009 (ip), vehicle: saline) was 88 % of control; the T/C (dose: 18.75 mg/kg/injection, schedule: Q04DX003 (ip), vehicle: saline) is 119 % of control; the T/C (dose: 21.2 mg/kg/injection, schedule: Q01DX009 (ip), vehicle: saline) was 90 % of control; the T/C (dose: 21.25 mg/kg/injection, schedule: Q01DX009 (ip), vehicle: saline) is 91 % of control and 109 % of control; the T/C (dose: 37.5 mg/kg/injection, schedule: Q04DX003 (ip), vehicle: saline) is 113 % of control; the T/C (dose: 42.5 mg/kg/injection, schedule: Q01DX009 (ip), vehicle: saline) is 95 % of control and 101 % of control. The T/C (dose: 75.0 mg/kg/injection, schedule: Q04DX003 (ip), vehicle: saline) is 119 % of control; the T/C (dose: 85.0 mg/kg/injection, schedule: Q01DX009 (ip), vehicle: saline) is 87 % of control; the T/C (dose: 110.0 mg/kg/injection, schedule: Q04DX003 (ip), vehicle: saline) was 112 % of control.

As to `Cc1c2oc3c(C)ccc(C(=O)NC4C(=O)NC(C(C)C)C(=O)N5CC(Cl)CC5C(=O)N(C)CC(=O)N(C)C(C(C)C)C(=O)OC4C)c3nc-2c(C(=O)NC2C(=O)NC(C(C)C)C(=O)N3CC(Cl)CC3C(=O)N(C)CC(=O)N(C)C(C(C)C)C(=O)OC2C)c(N)c1=O` (stereo unspecified) (I: TV[X2][Sar][NMeV] / II: TV[X2][Sar][NMeV]; ester I:1-I:C, II:1-II:C; linker I:N-II:N via Actinocin(9to1); configuration not given here), the T/C is 159 % of control (dose: 1080.0 micrograms/kg/injection, schedule: Q04DX003 (ip), vehicle: saline + alcohol) and 160 % of control (dose: 1800.0 micrograms/kg/injection, schedule: Q04DX003 (ip), vehicle: saline + alcohol).

With `COc1cc(C(=O)N2CCN(c3ccccc3)CC2)c2ccccc2n1`, the T/C by setting is: (dose: 100.0 mg/kg/injection, schedule: Q01DX009 (ip), vehicle: saline with Tween-80) 119 % of control; (dose: 200.0 mg/kg/injection, schedule: Q01DX009 (ip), vehicle: saline with Tween-80) 119 % of control; (dose: 400.0 mg/kg/injection, schedule: Q01DX009 (ip), vehicle: saline with Tween-80) 124 % of control.

With `Cc1ccc(S(=O)(=O)NC(CSSCC(NS(=O)(=O)c2ccc(C)cc2)C(=O)OC(C)(C)C)C(=O)OC(C)(C)C)cc1` (stereo unspecified), under “dose: 50.0 mg/kg/injection, schedule: Q01DX009 (ip), vehicle: Klucel (hydroxypropylcellulose) (HPC)”, the T/C is 107 % of control.
